The target in this experiment is T1, EHMT1 (Homo sapiens, UniProt Q9H9B1).
T1 sequence (Q9H9B1 1-1298): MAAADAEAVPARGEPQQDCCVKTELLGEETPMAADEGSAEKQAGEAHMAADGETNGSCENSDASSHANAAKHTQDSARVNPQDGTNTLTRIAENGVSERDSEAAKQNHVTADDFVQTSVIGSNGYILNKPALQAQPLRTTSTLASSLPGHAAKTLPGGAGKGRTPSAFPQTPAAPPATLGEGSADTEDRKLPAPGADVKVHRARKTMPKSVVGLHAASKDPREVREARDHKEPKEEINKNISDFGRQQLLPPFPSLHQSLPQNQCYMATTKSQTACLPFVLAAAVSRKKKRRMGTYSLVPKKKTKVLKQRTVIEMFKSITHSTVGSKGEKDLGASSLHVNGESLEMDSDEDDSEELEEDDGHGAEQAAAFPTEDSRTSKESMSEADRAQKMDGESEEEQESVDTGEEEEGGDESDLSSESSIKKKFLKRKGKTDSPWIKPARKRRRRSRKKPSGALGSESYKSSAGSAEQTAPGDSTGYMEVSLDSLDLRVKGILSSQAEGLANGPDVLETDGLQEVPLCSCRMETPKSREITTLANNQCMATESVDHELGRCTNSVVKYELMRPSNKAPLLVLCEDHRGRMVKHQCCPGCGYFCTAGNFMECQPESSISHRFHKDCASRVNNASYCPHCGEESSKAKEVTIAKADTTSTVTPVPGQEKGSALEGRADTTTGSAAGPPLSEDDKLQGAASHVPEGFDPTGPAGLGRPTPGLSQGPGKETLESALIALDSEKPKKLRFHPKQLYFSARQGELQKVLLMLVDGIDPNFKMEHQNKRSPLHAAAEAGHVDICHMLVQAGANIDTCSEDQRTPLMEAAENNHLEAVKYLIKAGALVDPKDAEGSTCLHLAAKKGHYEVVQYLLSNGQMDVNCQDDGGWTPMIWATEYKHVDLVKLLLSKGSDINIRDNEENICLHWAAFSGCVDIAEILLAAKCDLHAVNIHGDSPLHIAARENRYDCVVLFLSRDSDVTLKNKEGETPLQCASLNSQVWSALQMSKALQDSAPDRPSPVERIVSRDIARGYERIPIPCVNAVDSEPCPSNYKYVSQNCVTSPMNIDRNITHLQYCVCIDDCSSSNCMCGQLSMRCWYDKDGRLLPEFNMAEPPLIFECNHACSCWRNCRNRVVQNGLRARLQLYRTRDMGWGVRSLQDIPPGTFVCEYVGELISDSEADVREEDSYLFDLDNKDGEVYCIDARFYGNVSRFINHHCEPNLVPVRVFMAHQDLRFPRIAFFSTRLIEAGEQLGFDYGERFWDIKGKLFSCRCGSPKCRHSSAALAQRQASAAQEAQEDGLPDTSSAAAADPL
Description: EHMT1 enzyme assay on peptide substrate (EHMT1 PEP). Type of experiment: biochemical. The following applies: Table III; read-out: EHMT1 PEP (IC50 μM).

The IC50 is the concentration needed to halve the response being measured. `COc1ccc(Nc2nccc(NC(C)C3CCOCC3)n2)cc1OCCCN1CCCC1` (centres unmarked) [Compound 378]: the IC50 lay within 0.1 to 1 µM.

As for `CNc1ccnc(Nc2ccc(OC)c(OCCCN3CCCC3)c2)c1` [Compound 379], the IC50 is 1 to 10 µM.

Take `CNc1ccnc(Nc2ccc3ccn(CCN4CCCC4)c(=O)c3c2)n1` [Compound 381]: the IC50 was more than 10 µM.

Turning to `CNc1ccnc(Nc2ccc(OC)c(COCCN3CCCC3)c2)n1` [Compound 382], the half-maximal inhibitory concentration (IC50) fell in the range of 0.1 to 1 µM.

Consider `CNc1ccnc(Nc2cccc(COCCN3CCCC3)c2)n1` [Compound 383], for which the IC50 is 1 to 10 µM.

Take `CNc1cc(C#N)nc(Nc2ccc(OC)c(OCCCN3CCCC3)c2)n1` [Compound 384]: the IC50 was more than 10 µM.

Regarding `CCc1cc(NC)nc(Nc2ccc(OC)c(OCCCN3CC[C@@H](F)C3)c2)n1` [Compound 385], the IC50 fell in the range of 0.1 to 1 µM.

On to `CNc1ccnc(Nc2ccc3cnn(CCN(C)C)c3c2)n1` [Compound 386], for which the IC50 was more than 10 µM.

As to `CNc1ccnc(Nc2ccc(OC)c(OCCCN(C)C)c2)n1` [Compound 387], the IC50 is less than 0.1 µM.

As for `CNc1ccnc(Nc2ccc3cnn(CCCN(C)C)c3c2)n1` [Compound 388, N^2-(1-(3-(dimethylamino)propyl)-1H-indazol-6-yl)-N^4-methylpyrimidine-2,4-diamine], the IC50 was more than 10 µM.

On to `CNc1ccnc(Nc2ccc3c(C)nn(CCCN(C)C)c3c2)n1` [Compound 389], for which the concentration for half-maximal inhibition (IC50) was more than 10 µM.

In the case of `CNc1ccnc(Nc2ccc(OC)c(OCCCN3CCCCC3)c2)n1` [Compound 390], the 50% inhibitory concentration (IC50) is 0.1 to 1 µM.

Turning to `CNc1cc(C)nc(Nc2cccc(OCCCN3CCCC3)c2)n1` [Compound 391], the IC50 lay in the range of 0.1 to 1 µM.

For `COc1ccc(Nc2nccc(NCC(F)(F)F)n2)cc1OCCCN1CCCC1` [Compound 392], the half-inhibitory concentration (IC50) was 0.1 to 1 µM.

Consider `CNc1ccnc(Nc2ccc(OC)c(OCC3CCN(C)C3)c2)n1` (centres unmarked) [Compound 393], for which the 50% inhibitory concentration (IC50) was less than 0.1 µM.

For the compound `CCNC(=O)c1cccc(Nc2nccc(NC)n2)c1` [Compound 394], the IC50 was more than 10 µM.

On to `CCNC(=O)c1cc(Nc2nccc(NC)n2)ccc1OC` [Compound 395], for which the IC50 was more than 10 µM.

As for `CCNC(=O)c1cc(Nc2nccc(NC)n2)ccc1Cl` [Compound 396], the half-maximal inhibitory concentration (IC50) was in the range of 1 to 10 µM.

As for `CNc1ccnc(Nc2cccc(N3CCC(N(C)C)C3)c2)n1` (centres unmarked) [Compound 397], the 50% inhibitory concentration (IC50) was more than 10 µM.

On to `CNc1ccnc(Nc2ccc(Cl)c(OCCCN3CCCC3)c2)n1` [Compound 398], for which the half-maximal inhibitory concentration (IC50) fell in the range of 0.1 to 1 µM.

With `CNc1ccnc(Nc2cccc(N3CCC(N)C3)c2)n1` (centres unmarked) [Compound 400], the IC50 was more than 10 µM.

For `COc1ccc(Nc2ccc3cn(C)nc3n2)cc1OCCCN1CCCC1` [Compound 402], the concentration for half-maximal inhibition (IC50) was more than 10 µM.

For `CNc1ccnc(Nc2ccc3cn(CCN(C)C)nc3c2)n1` [Compound 404, N^2-(2-(2-(dimethylamino)ethyl)-2H-indazol-6-yl)-N^4-methylpyrimidine-2,4-diamine], the half-maximal inhibitory concentration (IC50) was more than 10 µM.

`CNc1ccnc(Nc2ccc3cn(CCCN(C)C)nc3c2)n1` [Compound 405]: the IC50 is more than 10 µM.

Turning to `CNc1ccnc(Nc2ccc(OC)c(COC3CCN(C)C3)c2)n1` (centres unmarked) [Compound 407, N^2-(4-methoxy-3-(((1-methylpyrrolidin-3-yl)oxy)methyl)phenyl)-N^4-methylpyrimidine-2,4-diamine], the half-inhibitory concentration (IC50) was in the range of 0.1 to 1 µM.

On to `CCN1CCC(COc2cc(Nc3nccc(NC)n3)ccc2OC)C1` (centres unmarked) [Compound 408, N^2-(3-((1-ethylpyrrolidin-3-yl)methoxy)-4-methoxyphenyl)-N^4-methylpyrimidine-2,4-diamine], for which the IC50 fell in the range of 0.1 to 1 µM.

`CNc1ccnc(Nc2ccc(OC)c(OCC3CCN(C(C)C)C3)c2)n1` (centres unmarked) [Compound 409, N^2-(3-((1-isopropylpyrrolidin-3-yl)methoxy)-4-methoxyphenyl)-N^4-methylpyrimidine-2,4-diamine]: the half-inhibitory concentration (IC50) is less than 0.1 µM.

For the compound `CNc1ccnc(Nc2ccc(OC)c(OCC3CCN(CCOC)C3)c2)n1` (centres unmarked) [Compound 410, N^2-(4-methoxy-3-((1-(2-methoxyethyl)pyrrolidin-3-yl)methoxy)phenyl)-N^4-methylpyrimidine-2,4-diamine], the IC50 lay within 1 to 10 µM.

As to `CNc1ccnc(Nc2ccc(OC)c(OCC3CCN(C4CC4)C3)c2)n1` (centres unmarked) [Compound 411, N^2-(3-((1-cyclopropylpyrrolidin-3-yl)methoxy)-4-methoxyphenyl)-N^4-methylpyrimidine-2,4-diamine], the IC50 is less than 0.1 µM.

Turning to `CNc1ccnc(Nc2ccc(OC)c(OCC3CCCN(C)C3)c2)n1` (centres unmarked) [Compound 412, N^2-(4-methoxy-3-((1-methylpiperidin-3-yl)methoxy)phenyl)-N^4-methylpyrimidine-2,4-diamine], the IC50 is 0.1 to 1 µM.

As for `CNc1cc(C)nc(Nc2ccc(OC)c(OCC3CCCN(C)C3)c2)n1` (centres unmarked) [Compound 413, N^2-(4-methoxy-3-((1-methylpiperidin-3-yl)methoxy)phenyl)-N^4,6-dimethylpyrimidine-2,4-diamine], the IC50 lay in the range of 0.1 to 1 µM.

In the case of `CNc1ccnc(Nc2ccc(OC)c(OCCCN3CC(O)C3)c2)n1` [Compound 414, 1-(3-(2-methoxy-5-((4-(methylamino)pyrimidin-2-yl)amino)phenoxy)propyl)azetidin-3-ol], the IC50 was less than 0.1 µM.

On to `CCCN1CCC(COc2cc(Nc3nccc(NC)n3)ccc2OC)C1` (centres unmarked) [Compound 420, N^2-(4-methoxy-3-((1-propylpyrrolidin-3-yl)methoxy)phenyl)-N^4-methylpyrimidine-2,4-diamine], for which the IC50 fell in the range of 0.1 to 1 µM.

As for `CNc1cc(C)nc(Nc2ccc(OC)c(COC3CCN(C)C3)c2)n1` (centres unmarked) [Compound 421, N^2-(4-methoxy-3-(((1-methylpyrrolidin-3-yl)oxy)methyl)phenyl)-N^4,6-dimethylpyrimidine-2,4-diamine], the IC50 lay within 0.1 to 1 µM.

Consider `CNc1ccnc(Nc2ccc(OC)c(OCC3CCN(CC4CC4)C3)c2)n1` (centres unmarked) [Compound 422, N^2-(3-((1-(cyclopropylmethyl)pyrrolidin-3-yl)methoxy)-4-methoxyphenyl)-N^4-methylpyrimidine-2,4-diamine], for which the concentration for half-maximal inhibition (IC50) was in the range of 0.1 to 1 µM.

(Values after US20210198277A1, “AMINE-SUBSTITUTED ARYL OR HETEROARYL COMPOUNDS” (Epizyme, Inc., priority 2016, published 2021).)
